Converted amounts (≈) assume the structure as drawn. Read-outs that look alike come from different tables or passages of the source.
Tests used:
[1] = system: Peptostreptococcus prevotii; assay: Agar dilution MIC; format: cell-based
[2] = system: Porphyromonas asaccharolyticus; assay: Agar dilution MIC; format: cell-based, Porphyromonas asaccharolytica
Bacteroides ureolyticus = assay: Agar dilution MIC; format: cell-based
[3] = system: Peptostreptococcus magnus; assay: Agar dilution MIC; format: cell-based; details: Finegoldia magna
Clostridium ramosum = assay: Agar dilution MIC; format: cell-based
Porphyromonas canoris = assay: Agar dilution MIC; format: cell-based
Bacteroides tectum = assay: Agar dilution MIC; format: cell-based
Bilophila wadsworthia = assay: Agar dilution MIC; format: cell-based
[4] = system: Prevotella denticola/loeschii group; assay: Agar dilution MIC; format: cell-based
[5] = system: certain Prevotella strains; details: Goldstein, et al.; cited from earlier work
Fusobacterium russii = assay: Agar dilution MIC; format: cell-based
[6] = system: Fusobacterium spp group 1; assay: Agar dilution MIC; format: cell-based
Porphyromonas gingivalis = assay: Agar dilution MIC; format: cell-based; details: Porphyromonas gingivalis
[7] = system: Clostridium clostridioforme; assay: Agar dilution MIC; format: cell-based
[8] = system: Prevotella heparinolytica; assay: Agar dilution MIC; format: cell-based
Veillonella spp. = assay: Agar dilution MIC; format: cell-based
[9] = system: Peptostreptococcus asaccharolyticus; assay: Agar dilution MIC; format: cell-based
B. ovatus = details: Goldstein, et al.; cited from earlier work
clostridial isolates = details: cited from earlier work
[10] = system: Anaerobiospirillum succiniciproducens; assay: Agar dilution MIC; format: cell-based
Fusobacterium varium = assay: Agar dilution MIC; format: cell-based
Prevotella intermedia = assay: Agar dilution MIC; format: cell-based
[11] = system: certain Porphyromonas strains; details: Goldstein, et al.; cited from earlier work
Porphyromonas macaccae = assay: Agar dilution MIC; format: cell-based
Actinomyces israelii = assay: Agar dilution MIC; format: cell-based
Prevotella bivia = assay: Agar dilution MIC; format: cell-based
[12] = system: Anaerobiospirillum thomasii; assay: Agar dilution MIC; format: cell-based
[13] = system: Prevotella melaninogenica; assay: Agar dilution MIC; format: cell-based
[14] = system: Prevotella buccae-oris group; assay: Agar dilution MIC; format: cell-based
[15] = system: Peptostreptococcus micros; assay: Agar dilution MIC; format: cell-based
peptostreptococci = details: cited from earlier work
Bacteroides gracilis = assay: Agar dilution MIC; format: cell-based, Bacteroides gracilis (Campylobacter gracilis)
[16] = system: Fusobacterium spp. group 2; assay: Agar dilution MIC; format: cell-based, Fusobacterium mortiferum, necrogenes, ulcerans; details: Fusobacterium
[17] = system: Actinomyces odontolyticus; assay: Agar dilution MIC; format: cell-based
Clostridium inocuum = assay: Agar dilution MIC; format: cell-based, Clostridium innocuum
Clostridium dfficile = assay: Agar dilution MIC; format: cell-based, Clostridium difficile
Porphyromonas spp. = assay: Agar dilution MIC; format: cell-based, Porphyromonas cangingivalis, cansulci, circumdentaria, levii
[18] = Porphyromonas, read-out: Minimal Inhibitory Concentration 50% (MIC50)
[19] = Porphyromonas, 11 isolates, read-out: Minimal Inhibitory Concentration 90% (MIC90)
[20] = read-out: Minimal Inhibitory Concentration 50% (MIC50)
[21] = 13 isolates, read-out: Minimal Inhibitory Concentration 90% (MIC90)
[22] = Clostridium, 11 isolates, read-out: Minimal Inhibitory Concentration 90% (MIC90)
[23] = Clostridium, read-out: Minimal Inhibitory Concentration 50% (MIC50)
[24] = Marco, et al., 18 strains of peptostreptococci

CO/N=C1\CN(c2nc3c(cc2F)c(=O)c(C(=O)O)cn3C2CC2)CC1CN (racemic) [Gemifloxacin, (R,S)-7-(3-aminomethyl-4-methoxyiminopyrrolidin-1-yl)-1-cyclopropyl-6-fluoro-4-oxo-1,4-dihydro-1,8-naphthyridine-3-carboxylic acid]
Minimal Inhibitory Concentration Range ([1]; 9 isolates): 0.06 to 0.25 µg/mL
MIC50 ([1]; Anaerococcus prevotii, read-out: Minimal Inhibitory Concentration 50% (MIC50)): 0.125 mg/L (≈ 0.321 µM)
Minimal Inhibitory Concentration Range ([2]; 11 isolates): 0.06 to 0.125 µg/mL
MIC50 [2, 18]: 0.06 mg/L (≈ 0.154 µM)
MIC90 [2, 19]: 0.125 mg/L (≈ 0.321 µM)
Minimal Inhibitory Concentration 90% (MIC90) (Bacteroides ureolyticus; 17 isolates): 2 mg/L
MIC90 (Bacteroides ureolyticus; Campylobacter ureolyticus, 17 isolates, read-out: Minimal Inhibitory Concentration 90% (MIC90)): ≤ 2 mg/L
MIC50 (Bacteroides ureolyticus; Campylobacter ureolyticus, read-out: Minimal Inhibitory Concentration 50% (MIC50)): ≤ 0.015 mg/L
MIC50 [3, 20]: 0.03 mg/L (≈ 0.077 µM)
MIC90 [3, 21]: 0.06 mg/L (≈ 0.154 µM)
Minimal Inhibitory Concentration Range (Clostridium ramosum; 10 isolates): 0.125 to 2 µg/mL
MIC50 (Clostridium ramosum; Thomasclavelia ramosa, read-out: Minimal Inhibitory Concentration 50% (MIC50)): 0.25 mg/L (≈ 0.642 µM)
MIC90 (Clostridium ramosum; Thomasclavelia ramosa, 10 isolates, read-out: Minimal Inhibitory Concentration 90% (MIC90)): 1 mg/L (≈ 2.57 µM)
Minimal Inhibitory Concentration Range (Porphyromonas canoris; 10 isolates): 0.06 to 0.25 µg/mL
MIC50 (Porphyromonas canoris; Porphyromonas canoris, read-out: Minimal Inhibitory Concentration 50% (MIC50)): 0.25 mg/L (≈ 0.642 µM)
MIC90 (Porphyromonas canoris; Porphyromonas canoris, 10 isolates, read-out: Minimal Inhibitory Concentration 90% (MIC90)): 0.25 mg/L (≈ 0.642 µM)
Minimal Inhibitory Concentration 90% (MIC90) (Bacteroides tectum; 22 isolates): 0.25 mg/L
Minimal Inhibitory Concentration Range (Bacteroides tectum; 22 isolates): 0.06 to 8 µg/mL
Minimal Inhibitory Concentration 90% (MIC90) (Bacteroides tectum; 22 isolates, listed as gemifloxacin): ≤ 2 mg/L
MIC50 (Bacteroides tectum; Bacteroides pyogenes, read-out: Minimal Inhibitory Concentration 50% (MIC50)): 0.125 mg/L (≈ 0.321 µM)
Minimal Inhibitory Concentration 90% (MIC90) (Bilophila wadsworthia; 16 isolates, agar supplemented with pyruvate): 4 mg/L
MIC90 (Bilophila wadsworthia; Bilophila wadsworthia, 16 isolates, agar supplemented with pyruvate, read-out: Minimal Inhibitory Concentration 90% (MIC90)): ≥ 4 mg/L
MIC50 (Bilophila wadsworthia; Bilophila wadsworthia, read-out: Minimal Inhibitory Concentration 50% (MIC50)): 0.25 mg/L (≈ 0.642 µM)
Minimal Inhibitory Concentration Range ([4]; 6 isolates): 0.25 to 8 µg/mL
MIC50 ([4]; Prevotella denticola, read-out: Minimal Inhibitory Concentration 50% (MIC50)): 0.5 mg/L (≈ 1.28 µM)
activity [5]: showed activity
Minimal Inhibitory Concentration 90% (MIC90) (Fusobacterium russii): >8 mg/L
MIC50 (Fusobacterium russii; Fusobacterium russii, read-out: Minimal Inhibitory Concentration 50% (MIC50)): > 8 mg/L
MIC90 (Fusobacterium russii; Fusobacterium russii, read-out: Minimal Inhibitory Concentration 90% (MIC90)): ≥ 4 mg/L
Minimal Inhibitory Concentration Range ([6]; 19 isolates): 0.06 to 8 µg/mL
MIC50 ([6]; Fusobacterium, GROUP1, read-out: Minimal Inhibitory Concentration 50% (MIC50)): 0.25 mg/L (≈ 0.642 µM)
MIC90 ([6]; Fusobacterium, GROUP1, 19 isolates, read-out: Minimal Inhibitory Concentration 90% (MIC90)): 8 mg/L (≈ 20.5 µM)
MIC50 (Porphyromonas gingivalis; [20]): 0.06 mg/L (≈ 0.154 µM)
MIC90 (Porphyromonas gingivalis; [21]): 0.125 mg/L (≈ 0.321 µM)
susceptibility to gemifloxacin [7]: relatively susceptible
Minimal Inhibitory Concentration 90% (MIC90) ([7]; 11 isolates): 1 mg/L
MIC90 [7, 22]: ≤ 2 mg/L
MIC50 [7, 23]: 0.5 mg/L (≈ 1.28 µM)
Minimal Inhibitory Concentration 90% (MIC90) ([8]; 16 isolates): 0.5 mg/L
Minimal Inhibitory Concentration Range ([8]; 16 isolates): 0.25 to 0.5 µg/mL
Minimal Inhibitory Concentration 90% (MIC90) ([8]; 16 isolates, listed as gemifloxacin): ≤ 2 mg/L
MIC50 ([8]; Prevotella heparinolytica, read-out: Minimal Inhibitory Concentration 50% (MIC50)): 0.5 mg/L (≈ 1.28 µM)
Minimal Inhibitory Concentration 90% (MIC90) (Veillonella spp.; 24 isolates): 8 mg/L
MIC90 (Veillonella spp.; Veillonella, 24 isolates, read-out: Minimal Inhibitory Concentration 90% (MIC90)): ≥ 4 mg/L
MIC50 (Veillonella spp.; Veillonella, read-out: Minimal Inhibitory Concentration 50% (MIC50)): 1 mg/L (≈ 2.57 µM)
Minimal Inhibitory Concentration Range ([9]; 11 isolates): 0.125 to 0.25 µg/mL
MIC50 ([9]; Peptoniphilus asaccharolyticus, read-out: Minimal Inhibitory Concentration 50% (MIC50)): 0.25 mg/L (≈ 0.642 µM)
MIC90 ([9]; Peptoniphilus asaccharolyticus, 11 isolates, read-out: Minimal Inhibitory Concentration 90% (MIC90)): 0.25 mg/L (≈ 0.642 µM)
activity (B. ovatus): only limited activity
maximum MIC (clostridial isolates; Cormicon and Jones, ten clostridial isolates): 2 mg/L
concentration to which all isolates were susceptible (MIC) (clostridial isolates; Marco, et al., 19 unspecieted clostridial isolates): ≤ 2 mg/L
Minimal Inhibitory Concentration Range ([10]; 3 isolates): 0.5 to 2 µg/mL
MIC50 ([10]; Anaerobiospirillum succiniciproducens, read-out: Minimal Inhibitory Concentration 50% (MIC50)): 1 mg/L (≈ 2.57 µM)
susceptibility pattern of strains (Fusobacterium varium): bimodal pattern
MIC50 (Fusobacterium varium; Fusobacterium varium, read-out: Minimal Inhibitory Concentration 50% (MIC50)): > 8 mg/L
MIC90 (Fusobacterium varium; Fusobacterium varium, 17 isolates, read-out: Minimal Inhibitory Concentration 90% (MIC90)): > 8 mg/L
Minimal Inhibitory Concentration 90% (MIC90) (Prevotella intermedia; 11 isolates): 0.5 mg/L
Minimal Inhibitory Concentration Range (Prevotella intermedia; 11 isolates): 0.06 to 1 µg/mL
Minimal Inhibitory Concentration 90% (MIC90) (Prevotella intermedia; 11 isolates, listed as gemifloxacin): ≤ 2 mg/L
MIC50 (Prevotella intermedia; Prevotella intermedia, read-out: Minimal Inhibitory Concentration 50% (MIC50)): 0.25 mg/L (≈ 0.642 µM)
activity [11]: showed activity
Minimal Inhibitory Concentration Range (Porphyromonas macaccae; 13 isolates): 0.03 to 0.125 µg/mL
MIC50 (Porphyromonas macaccae; [18]): 0.06 mg/L (≈ 0.154 µM)
MIC90 (Porphyromonas macaccae; Porphyromonas, 13 isolates, read-out: Minimal Inhibitory Concentration 90% (MIC90)): 0.125 mg/L (≈ 0.321 µM)
Minimal Inhibitory Concentration Range (Actinomyces israelii; 6 isolates): 0.5 to 2 µg/mL
MIC50 (Actinomyces israelii; Actinomyces israelii, read-out: Minimal Inhibitory Concentration 50% (MIC50)): 1 mg/L (≈ 2.57 µM)
MIC90 (Actinomyces israelii; Actinomyces israelii, stated in text only): ≤ 2 mg/L
Minimal Inhibitory Concentration 90% (MIC90) (Prevotella bivia; 21 isolates): 8 mg/L
MIC90 (Prevotella bivia; Prevotella bivia, 21 isolates, read-out: Minimal Inhibitory Concentration 90% (MIC90)): ≥ 4 mg/L
MIC50 (Prevotella bivia; Prevotella bivia, read-out: Minimal Inhibitory Concentration 50% (MIC50)): 8 mg/L (≈ 20.5 µM)
Minimal Inhibitory Concentration Range ([12]; 13 isolates): 0.06 to 0.25 µg/mL
MIC50 ([12]; Anaerobiospirillum thomasii, read-out: Minimal Inhibitory Concentration 50% (MIC50)): 0.125 mg/L (≈ 0.321 µM)
MIC90 ([12]; Anaerobiospirillum thomasii, 13 isolates, read-out: Minimal Inhibitory Concentration 90% (MIC90)): 0.125 mg/L (≈ 0.321 µM)
Minimal Inhibitory Concentration 90% (MIC90) ([13]; 12 isolates): 8 mg/L
MIC90 ([13]; Prevotella melaninogenica, 12 isolates, read-out: Minimal Inhibitory Concentration 90% (MIC90)): ≥ 4 mg/L
MIC50 ([13]; Prevotella melaninogenica, read-out: Minimal Inhibitory Concentration 50% (MIC50)): 1 mg/L (≈ 2.57 µM)
Minimal Inhibitory Concentration 90% (MIC90) ([14]; 22 isolates): 2 mg/L
Minimal Inhibitory Concentration Range ([14]; 22 isolates): 0.5 to 8 µg/mL
MIC90 ([14]; Prevotella, 22 isolates, read-out: Minimal Inhibitory Concentration 90% (MIC90)): ≤ 2 mg/L
MIC50 ([14]; Prevotella, read-out: Minimal Inhibitory Concentration 50% (MIC50)): 2 mg/L (≈ 5.14 µM)
Minimal Inhibitory Concentration Range ([15]; 12 isolates): 0.06 to 0.125 µg/mL
MIC50 ([15]; Parvimonas micra, read-out: Minimal Inhibitory Concentration 50% (MIC50)): 0.06 mg/L (≈ 0.154 µM)
MIC90 ([15]; Parvimonas micra, 12 isolates, read-out: Minimal Inhibitory Concentration 90% (MIC90)): 0.06 mg/L (≈ 0.154 µM)
MIC90 (peptostreptococci; Cormicon and Jones, 10 strains of peptostreptococci): 2 mg/L (≈ 5.14 µM)
MIC90 (peptostreptococci; [24]): 2 mg/L (≈ 5.14 µM)
MIC range (peptostreptococci; [24]): 0.25 to 8 mg/L
Minimal Inhibitory Concentration 90% (MIC90) (Bacteroides gracilis; 11 isolates): 1 mg/L
MIC90 (Bacteroides gracilis; Campylobacter gracilis, 11 isolates, read-out: Minimal Inhibitory Concentration 90% (MIC90)): ≤ 2 mg/L
MIC50 (Bacteroides gracilis; Campylobacter gracilis, read-out: Minimal Inhibitory Concentration 50% (MIC50)): ≤ 0.015 mg/L
MIC50 [16, 20]: 4 mg/L (≈ 10.3 µM)
MIC90 ([16]; 12 isolates, read-out: Minimal Inhibitory Concentration 90% (MIC90)): 4 mg/L (≈ 10.3 µM)
Minimal Inhibitory Concentration 90% (MIC90) ([17]; 10 isolates): 2 mg/L
Minimal Inhibitory Concentration Range ([17]; 10 isolates): 1 to 2 µg/mL
MIC90 ([17]; Schaalia odontolytica, 10 isolates, read-out: Minimal Inhibitory Concentration 90% (MIC90)): ≤ 2 mg/L
MIC50 ([17]; Schaalia odontolytica, read-out: Minimal Inhibitory Concentration 50% (MIC50)): 2 mg/L (≈ 5.14 µM)
susceptibility to gemifloxacin (Clostridium inocuum): relatively susceptible
Minimal Inhibitory Concentration 90% (MIC90) (Clostridium inocuum; 11 isolates): 2 mg/L
MIC90 (Clostridium inocuum; [22]): ≤ 2 mg/L
MIC50 (Clostridium inocuum; [23]): 0.25 mg/L (≈ 0.642 µM)
susceptibility to gemifloxacin (Clostridium dfficile): often resistant
Minimal Inhibitory Concentration 90% (MIC90) (Clostridium dfficile; 14 isolates): >8 mg/L
MIC50 (Clostridium dfficile; [23]): 2 mg/L (≈ 5.14 µM)
MIC90 (Clostridium dfficile; Clostridium, read-out: Minimal Inhibitory Concentration 90% (MIC90), 14 isolates): ≥ 4 mg/L
Minimal Inhibitory Concentration Range (Porphyromonas spp.; 11 isolates): 0.06 to 0.125 µg/mL
MIC50 (Porphyromonas spp.; [18]): 0.06 mg/L (≈ 0.154 µM)
MIC90 (Porphyromonas spp.; [19]): 0.125 mg/L (≈ 0.321 µM)

Reference: US6455540B1, “Methods of use of quinolone compounds against anaerobic pathogenic bacteria” (priority 1999, dated 2002)
